Source: US7678812B2, “Aminotetralin-derived urea modulators of vanilloid VR1 receptor” (Janssen Pharmaceutica NV, priority 2002, dated 2010)

How the values were obtained:
hVR1 receptors [1] = molecular target: T1, hVR1 receptors (Homo sapiens, UniProt Q8NER1); assay: [3H] RTX binding assay, human VR1; design: expressed in transfected cells; host or cells: HEK293 (membrane preparation); conditions: inhibition of [3H] RTX binding, membranes of HEK293 cells transfected with human VR1
Description: Compounds of the present invention were tested for their ability to inhibit the binding of [^3H] RTX to hVR1 receptors in a [^3H] RTX binding assay as previously described (Zhang, Sui-Po. Improved ligand binding assays for vanilloid receptors. PCT Int. Appl. (2002), 29 pp. CODEN: PIXXD2 WO 0233411 A1 20020425 AN 2002:315209; Grant, Elfrida R.; Dubin, Adrienne E.; Zhang, Sui-Po; Zivin, Robert A.; Zhong, Zhong Simultaneous intracellular calcium and sodium flux imaging in human vanilloid receptor 1 (VR1)-transfected human embryonic kidney cells: a method to resolve ionic dependence of VR1-mediated cell death. Journal of Pharmacology and Experimental Therapeutics (2002), 300(1), 9-17.)
HEK293 cells were transfected with human VR1 vanilloid receptors and washed with Hank's Balanced Salt Solution, dissociated with cell dissociation buffer (Sigma), and then centrifuged at 1000×g for 5 min. Cell pellets were homogenized in cold 20 mM HEPES buffer, pH 7.4, containing 5.8 mM NaCl, 320 mM sucrose, 2 mM MgCl2, 0.75 CaCl2 and 5 mM KCl and centrifuged at 1000×g for 15 min. The resultant supernate was then centrifuged at 40000×g for 15 min. The pelleted membranes were kept in an −80° C. freezer.
Approximately 120 μg protein/ml from membranes were incubated with indicated concentrations of [^3H] RTX in 0.5 ml of the HEPES buffer (pH 7.4) containing 0.25 mg/mL fatty acid-free bovine serum albumin at 37° C. for 60 min. The reaction mixture was then cooled to 4° C., 0.1 mg α1-acid glycoprotein added to each sample and incubated at 4° C. for 15 min. The samples were centrifuged at 18500×g for 15 min. The tip of the microcentrifuge tube containing the pellet was cut off. Bound radioactivity was quantified by scintillation counting. Non-specific binding was tested in the presence of 200 nM unlabeled RTX.

Rat VR1 = Rat VR1 (Rattus norvegicus, UniProt O35433); assay: [3H]-RTX binding assay using rat tissue (spinal cord); design: Rat spinal cord was homogenized twice with a Polytron; from tissue; host or cells: rat spinal cord membranes; conditions: rat spinal cord membranes
Chain of Rat VR1 (O35433 whole entry): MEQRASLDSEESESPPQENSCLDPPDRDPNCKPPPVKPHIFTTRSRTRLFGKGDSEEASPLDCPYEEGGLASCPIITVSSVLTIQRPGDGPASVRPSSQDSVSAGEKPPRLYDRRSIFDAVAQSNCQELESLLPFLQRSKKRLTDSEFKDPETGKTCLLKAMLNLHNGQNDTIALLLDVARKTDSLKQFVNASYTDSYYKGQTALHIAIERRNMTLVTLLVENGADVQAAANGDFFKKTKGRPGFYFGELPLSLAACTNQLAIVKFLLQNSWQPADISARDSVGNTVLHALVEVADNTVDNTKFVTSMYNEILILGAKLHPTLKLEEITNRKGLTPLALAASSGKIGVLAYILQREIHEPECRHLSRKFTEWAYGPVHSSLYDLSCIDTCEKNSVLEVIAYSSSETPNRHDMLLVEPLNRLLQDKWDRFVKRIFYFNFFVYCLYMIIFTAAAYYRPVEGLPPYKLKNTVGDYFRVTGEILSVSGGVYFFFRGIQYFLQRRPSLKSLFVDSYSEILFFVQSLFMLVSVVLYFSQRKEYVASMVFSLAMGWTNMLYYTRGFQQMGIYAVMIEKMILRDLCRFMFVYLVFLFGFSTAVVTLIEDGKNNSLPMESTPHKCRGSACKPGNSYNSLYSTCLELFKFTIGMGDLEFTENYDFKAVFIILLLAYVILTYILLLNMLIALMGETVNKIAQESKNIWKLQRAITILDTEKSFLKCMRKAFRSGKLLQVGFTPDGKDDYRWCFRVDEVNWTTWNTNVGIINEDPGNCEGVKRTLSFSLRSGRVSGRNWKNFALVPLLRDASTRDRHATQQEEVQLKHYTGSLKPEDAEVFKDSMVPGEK
Description: Alternatively, a binding assay using rat tissue was used. Rat spinal cord was homogenized twice with a Polytron and centrifuged at 3000 rpm for 10 min in HEPES buffer containing 20 mM HEPES, pH 7.4, NaCl 5.8 mM, sucrose 320 mM, MgCl2 2 mM, CaCl2 0.75 mM and KCl 5 mM. The supernatant was then centrifuged at 18,000 rpm for 20 min. The pellet was saved in a tube and 10 ml assay buffer was added into the tube. The pellet and buffer were mixed with a Polytron. The assay contained 120 μg/ml membrane protein and 0.3-0.6 nM [^3H]-RTX (NEN, Boston) in a total volume of 0.5 ml HEPES buffer. Following-incubation for 60 min at 37 C, the samples were cooled down on ice, and 100 mg of α-acid glycoprotein were added into the samples. After centrifugation at 13,000 rpm for 15 min, the supernatant was aspirated and the tips of tubes were cut off and placed into 6 ml vials. Data were calculated according to the equation: % inhibition=(total binding−binding)*100/(total binding−non specific binding). Ki value values were calculated using a Prism program.

[2] = molecular target: T2, VR1 expressed endogenously on small rat dorsal root ganglion (DRG) neurons (Rattus norvegicus, UniProt O35433); assay: Electrophysiologic functional assay using dissociated rat DRG cells (whole cell patch clamp); assay type: cell-based; conditions: for inhibition of the response to 1 uM capsaicin: capsaicin-induced currents in rat DRG neurons; for % of the initial CAP response in presence of 1 uM CAP / % of the initial CAP response in presence of 10 uM CAP: initial response to 0.3 uM capsaicin
T2 construct: VR1 expressed endogenously on small rat dorsal root ganglion (DRG) neurons; endogenous in cells; host or cells: dissociated DRG neurons from normal rats
T2 sequence (O35433 whole entry): as above
Description: Compounds 42, 95, 101, 105 and 106 were tested for their activity on VR1 expressed endogenously on small rat dorsal root ganglion (DRG) neurons. DRG neurons from normal rats were dissociated (see methods in Chaplan et al., 2003) and whole cell currents mediated by VR1 were recorded using the whole cell patch clamp technique. […] This was followed by application of 10 μM CAP in the presence of compound. […] The ability of 1 and 10 μM CAP to cause an increased current after exposure to a compound of the invention was compared to controls.

hVR1 receptors [3] = molecular target: T1, hVR1 receptors; assay: Broadly stimulated recombinant human VR1 functional assay (Ca2+ influx, FLIPR); assay type: cell-based; design: expressed in transfected cells; host or cells: HEK293

T1 sequence (Q8NER1 whole entry): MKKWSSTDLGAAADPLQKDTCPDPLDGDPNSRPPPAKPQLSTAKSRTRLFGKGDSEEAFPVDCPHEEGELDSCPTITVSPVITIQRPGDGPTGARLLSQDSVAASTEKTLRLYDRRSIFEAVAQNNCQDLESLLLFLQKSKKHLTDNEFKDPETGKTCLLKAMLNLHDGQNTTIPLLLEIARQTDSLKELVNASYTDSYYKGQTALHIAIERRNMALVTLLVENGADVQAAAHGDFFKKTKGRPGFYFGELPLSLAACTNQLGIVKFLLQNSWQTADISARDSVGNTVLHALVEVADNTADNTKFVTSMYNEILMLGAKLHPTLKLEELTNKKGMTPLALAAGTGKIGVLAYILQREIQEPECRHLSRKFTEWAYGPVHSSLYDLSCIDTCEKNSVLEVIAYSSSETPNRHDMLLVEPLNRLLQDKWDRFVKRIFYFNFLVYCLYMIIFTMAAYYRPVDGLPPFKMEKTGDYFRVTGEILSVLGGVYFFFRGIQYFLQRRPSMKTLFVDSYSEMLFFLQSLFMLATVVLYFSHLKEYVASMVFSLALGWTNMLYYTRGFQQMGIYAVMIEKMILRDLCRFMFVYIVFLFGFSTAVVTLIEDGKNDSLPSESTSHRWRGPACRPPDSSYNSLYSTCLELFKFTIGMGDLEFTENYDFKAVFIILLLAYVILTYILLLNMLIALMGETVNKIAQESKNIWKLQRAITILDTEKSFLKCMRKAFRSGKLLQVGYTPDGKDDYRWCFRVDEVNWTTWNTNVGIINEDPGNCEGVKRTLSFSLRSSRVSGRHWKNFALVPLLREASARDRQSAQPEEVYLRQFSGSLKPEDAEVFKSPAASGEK

Ki (hVR1 receptors [1]) | also measured | Compound
15.5 nM | Ki (Rat VR1): 1270 nM | O=C(Nc1cccc2cnccc12)N[C@@H]1CCc2cc(F)ccc2[C@@H]1Cc1ccoc1 (relative stereo) [Compound 88]
– | Ki (Rat VR1): 259 nM | COc1ccc2c(c1)CC[C@@H](NC(=O)Nc1cccc3cnccc13)[C@H]2Cc1ccc(F)cc1F (relative stereo) [Compound 90]
– | Ki (Rat VR1): 1480 nM | COc1ccc2c(c1)CC[C@@H](NC(=O)Nc1cccc3cnccc13)[C@@H]2Cc1ccc(F)cc1F (relative stereo) [Compound 91]
5.25 nM | Ki (Rat VR1): 781 nM | Cc1cc2c(NC(=O)NC3CCc4cc(F)ccc4C3Cc3ccccc3)cccc2cn1 (single isomer, unassigned) [Compound 100]
1.12 nM | inhibition of the response to 1 uM capsaicin [2]: dose dependent; % of the initial CAP response in presence of 1 uM CAP ([2]; compound concentration 0.03 uM): 14%; % of the initial CAP response in presence of 10 uM CAP ([2]; compound concentration 0.03 uM): 54%; % of the initial CAP response in presence of 1 uM CAP ([2]; compound concentration 0.1 uM): 0%; % of the initial CAP response in presence of 10 uM CAP ([2]; compound concentration 0.1 uM): 0%; Ki (Rat VR1): 53.1 nM | Cc1cc2c(NC(=O)NC3CCc4cc(F)ccc4C3Cc3ccccc3)cccc2cn1 (single isomer, unassigned) [Compound 101]
2.16 nM | Ki (Rat VR1): 169 nM | O=C(Nc1cccc2cnccc12)NC1CCc2cc(F)ccc2C1Cc1cccc(C(F)(F)F)c1 (single isomer, unassigned) [Compound 118]
0.5 nM | Ki (Rat VR1): 152 nM | O=C(Nc1cccc2cnccc12)NC1CCc2cc(F)ccc2C1Cc1cccc(C(F)(F)F)c1 (single isomer, unassigned) [Compound 119]
– | IC50 (hVR1 receptors [3]; human recombinant receptor, FIG. 1, read-out: potency to inhibit Ca2+ activity induced by the panel of stimuli): 100 to 300 nM | Oc1cc2c(cc1O)CN(C(=S)NCCc1ccc(Cl)cc1)CCC2 [Capsazepine, capsazepine, reference compound]
1.94 nM | % of the initial CAP response in presence of 1 uM CAP ([2]; compound concentration 0.3 uM): 0% | O=C(Nc1cccc2cnccc12)NC1CCc2c(Cl)cccc2C1Cc1ccccc1 (stereo not drawn) [Compound 42]
19.3 nM | – | COc1cc2c(cc1OC)C(Cc1ccccc1)C(NC(=O)Nc1cccc3cnccc13)CC2 (stereo not drawn) [Compound 48]
1.8 nM | – | COc1ccc2c(c1)CCC(NC(=O)Nc1cccc3cnccc13)C2Cc1ccc(Cl)cc1 (stereo not drawn) [Compound 50]
24 nM | – | COc1ccc2c(c1)CCC(NC(=O)Nc1cccc3cnccc13)C2 (stereo not drawn) [Compound 51]
0.48 nM | – | COc1ccc2c(c1)CCC(NC(=O)Nc1cccc3cnccc13)C2Cc1ccccc1C(F)(F)F (stereo not drawn) [Compound 53]
2.04 nM | – | COc1ccc2c(c1)CCC(NC(=O)Nc1cccc3cnccc13)C2Cc1cccc(C(F)(F)F)c1 (stereo not drawn) [Compound 54]
1.55 nM | – | COc1ccc2c(c1)CCC(NC(=O)Nc1cccc3cnccc13)C2Cc1ccc(C(F)(F)F)cc1 (stereo not drawn) [Compound 55]
277 nM | – | O=C(Nc1cccc2cnccc12)NC1CCc2cc(O)ccc2C1Cc1ccccc1 (stereo not drawn) [Compound 56]
2.62 nM | – | O=C(Nc1cccc2cnccc12)NC1CCc2cc(Br)ccc2C1 (stereo not drawn) [Compound 58]
2.6 nM | – | O=C(Nc1cccc2cnccc12)NC1CCc2cc(Cl)ccc2C1 (stereo not drawn) [Compound 59]
4.99 nM | – | O=C(NCc1cccc2cnccc12)NC1CCc2cc(F)ccc2C1Cc1ccccc1 (stereo not drawn) [Compound 60, 1-(1-Benzyl-6-fluoro-1,2,3,4-tetrahydronaphthalene-2-yl)-3-isoquinolin-5-ylmethyl-urea]
3.42 nM | – | O=C(Nc1cccc2cnccc12)NC1CCc2ccc(Cl)cc2C1 (stereo not drawn) [Compound 61]
7.59 nM | – | O=C(Nc1cccc2cnccc12)NC1CCc2cccc(Cl)c2C1Cc1ccccc1 (stereo not drawn) [Compound 62]

Ki (hVR1 receptors [1]) | also measured | Compound
16.5 nM | – | COc1ccc2c(c1)CCC(NC(=O)Nc1cccc3cnccc13)C2Cc1ccc(C#N)cc1 (stereo not drawn) [Compound 63]
1.28 nM | – | COc1ccc2c(c1)CCC(NC(=O)Nc1cccc3cnccc13)C2Cc1ccc(Br)cc1 (stereo not drawn) [Compound 64]
1.82 nM | – | O=C(Nc1cccc2cnccc12)NC1CCc2cc(F)c(F)cc2C1Cc1ccccc1 (stereo not drawn) [Compound 66]
1.44 nM | – | O=C(Nc1cccc2ccc(O)cc12)NC1CCc2cc(F)ccc2C1Cc1ccccc1 (stereo not drawn) [Compound 67, 1-(1-Benzyl-6-fluoro-1,2,3,4-tetrahydronaphthalene-2-yl)-3-(7-hydroxy-naphthalen-1-yl)-urea]
2.19 nM | – | C=CCC1c2ccc(F)cc2CCC1NC(=O)Nc1cccc2cnccc12 (stereo not drawn) [Compound 69]
5.55 nM | – | COc1ccc(CC2c3ccc(OC)cc3CCC2NC(=O)Nc2cccc3cnccc23)cc1 (stereo not drawn) [Compound 70]
0.84 nM | – | O=C(Nc1cccc2cnccc12)NC1CCc2cc(F)ccc2C1CC1CC1 (stereo not drawn) [Compound 71, 1-(1-cyclopropylmethyl-6-fluoro-1,2,3,4-tetrahydronaphthalene-2-yl)-3-isoquinolin-5-yl-urea]
7.52 nM | – | COc1ccc(CC2c3ccc(OC)cc3CCC2NC(=O)Nc2cccc3cnccc23)cc1 (stereo not drawn) [Compound 72]
53.4 nM | – | COc1ccc2c(c1)CCC(NC(=O)Nc1cccc3cnccc13)C2Cc1ccccc1OC (stereo not drawn) [Compound 73]
11.3 nM | – | COc1ccc2c(c1)CCC(NC(=O)Nc1cccc3cnccc13)C2Cc1ccc(OCc2ccccc2)cc1 (stereo not drawn) [Compound 74]
3.81 nM | – | O=C(Nc1cccc2cnccc12)NC1CCc2cc(F)ccc2C1Cc1cccs1 (stereo not drawn) [Compound 76]
6.26 nM | – | COc1ccc2c(c1)CCC(NC(=O)Nc1cccc3cnccc13)C2Cc1c(F)cccc1F (stereo not drawn) [Compound 77]
1.7 nM | – | O=C(Nc1cccc2cnccc12)NC1CCc2cc(Cl)ccc2C1Cc1ccccc1 (stereo not drawn) [Compound 86]
– | Ki (Rat VR1): 1080 nM | COc1ccc2c(c1)CCC(NC(=O)Nc1cccc3cnccc13)C2Cc1ccsc1 (stereo not drawn) [Compound 89]
1.7 nM | inhibition of the response to 1 uM capsaicin [2]: dose dependent; % of the initial CAP response in presence of 1 uM CAP ([2]; compound concentration 0.03 uM): 78%; % of the initial CAP response in presence of 10 uM CAP ([2]; compound concentration 0.03 uM): 1073%; Ki (Rat VR1): 217 nM | O=C(Nc1cccc2cnccc12)NC1CCc2cc(Cl)ccc2C1Cc1ccccc1 (stereo not drawn) [Compound 95]
2700 nM | – | O=C(Nc1cccc2cncc(Cl)c12)NC1CCc2cc(F)ccc2C1Cc1ccccc1 (stereo not drawn) [Compound 99]
186 nM | – | O=C(Nc1cccc2c(Cl)nc(Cl)cc12)NC1CCc2cc(F)ccc2C1Cc1ccccc1 (stereo not drawn) [Compound 108]
29.2 nM | – | O=C(Nc1cccc2c(Cl)nc(Cl)cc12)NC1CCc2cc(F)ccc2C1Cc1ccccc1 (stereo not drawn) [Compound 109]
73 nM | Ki (Rat VR1): 1700 nM | O=C(Nc1cccc2cnccc12)NC1CCc2ccccc2C12Cc1ccccc1C2 (stereo not drawn) [Compound 122, Spiro{indan-2,1′-(1′,2′,3′,4′-tetrahydronaphthalene)-2′-yl}-3-isoquinolin-5-yl-urea]
– | EC80 for H2O2-induced Ca2+ flux (hVR1 receptors [3]; VR1/HEK cells, species not stated): 0.015 % H2O2 | OO [Compound H2O2, H2O2, reference compound]
